Test results: patent publication US20170007615A1, “Antibacterial Compounds” (priority 2014, published 2017)
In brackets after ≈: the same amount, converted by molar mass. Where two headings read alike, the source gives them in different places.

Assays:
[1] = test system: N. gonorrheae (ATCC 49226); assay: Antibacterial activity (MIC), Gram-negative type strain; assay type: cell-based, Neisseria gonorrhoeae; conditions: Neisseria gonorrhoeae, ATCC49226; Table 13
[2] = test system: E. coli drug resistant clinical isolates; assay: Antibacterial activity (MIC) against drug resistant clinical isolates, alone and with PMBN; assay type: cell-based; conditions: for MIC: Escherichia coli, read-out: MIC Compound alone
E. cloaceae (ATCC 13047) = assay: microbe, parasite or virus in culture; conditions: Enterobacter cloacae, ATCC13047, read-out: MIC Compound alone
[3] = test system: E. cloaceae drug resistant clinical isolates; assay: Antibacterial activity (MIC) against drug resistant clinical isolates, alone and with PMBN; assay type: cell-based; conditions: for MIC: read-out: MIC Compound alone
[4] = test system: P. aeruginosa (ATCC 27853); assay: microbe, parasite or virus in culture; conditions: Pseudomonas aeruginosa, ATCC27853, read-out: MIC Compound alone
E. faecalis (ATCC 29212) = assay: Antibacterial activity (MIC), Gram-positive type strain; assay type: cell-based, Enteroccocus faecalis; conditions: Enterococcus faecalis, ATCC29212; Table 13
[5] = test system: H. influenzae (ATCC 49247); assay: Antibacterial activity (MIC), Gram-negative type strain; assay type: cell-based, Haemophilus influenzae; conditions: Haemophilus influenzae, ATCC49247; Table 13
[6] = test system: A. baumannii (ATCC 19606); conditions: Table 4

MIC [1]: ≤ 0.008 µg/mL
MIC of Compound (μg/ml) in the presence of PMBN (128 μg/ml) ([2]; E. coli (BAA200)): ≦0.008 μg/ml
MIC of Compound (μg/ml) in the presence of PMBN (128 μg/ml) ([2]; E. coli (MMX 1312)): ≦0.008 μg/ml
MIC of Compound (μg/ml) in the presence of PMBN (128 μg/ml) ([2]; E. coli (MMX 2232)): ≦0.008 μg/ml
MIC of Compound (μg/ml) in the presence of PMBN (128 μg/ml) ([2]; E. coli (MMX 5743)): ≦0.008 μg/ml
MIC of Compound (μg/ml) in the presence of PMBN (128 μg/ml) ([2]; E. coli (MMX 5771)): ≦0.12 μg/ml
MIC of Compound (μg/ml) in the presence of PMBN (128 μg/ml) ([2]; E. coli (MMX 6413)): ≦0.12 μg/ml
MIC of Compound (μg/ml) in the presence of PMBN (128 μg/ml) ([2]; E. coli (NCTC11954)): ≦0.008 μg/ml
MIC of Compound (μg/ml) in the presence of PMBN (128 μg/ml) ([2]; E. coli (NCTC13351)): ≦0.12 μg/ml
MIC of Compound (μg/ml) in the presence of PMBN (128 μg/ml) ([2]; E. coli (NCTC13352)): ≦0.008 μg/ml
MIC of Compound (μg/ml) in the presence of PMBN (128 μg/ml) ([2]; E. coli (NCTC13353)): ≦0.008 μg/ml
MIC of Compound (μg/ml) in the presence of PMBN (128 μg/ml) ([2]; E. coli (NCTC13400)): ≦0.008 μg/ml
MIC of Compound (μg/ml) in the presence of PMBN (128 μg/ml) ([2]; E. coli (NCTC13441)): ≦0.12 μg/ml
MIC of Compound (μg/ml) in the presence of PMBN (128 μg/ml) ([2]; E. coli (NCTC13450)): ≦0.12 μg/ml
MIC of Compound (μg/ml) in the presence of PMBN (128 μg/ml) ([2]; E. coli (NCTC13461)): ≦0.12 μg/ml
MIC of Compound (μg/ml) in the presence of PMBN (128 μg/ml) ([2]; E. coli (NCTC13462)): ≦0.008 μg/ml
MIC of Compound (μg/ml) in the presence of PMBN (128 μg/ml) ([2]; E. coli (NCTC13463)): ≦0.008 μg/ml
MIC of Compound (μg/ml) in the presence of PMBN (128 μg/ml) ([2]; E. coli (NCTC13476)): ≦0.12 μg/ml
MIC ([2]; BAA200, E. coli (BAA200)): > 4 µg/mL
MIC ([2]; E. coli (MMX 1312)): 16 µg/mL (≈ 30.4 µM)
MIC ([2]; E. coli (MMX 2232)): 16 µg/mL (≈ 30.4 µM)
MIC ([2]; E. coli (MMX 5743)): 4 µg/mL (≈ 7.61 µM)
MIC ([2]; E. coli (MMX 5771)): > 64 µg/mL
MIC ([2]; E. coli (MMX 6413)): > 64 µg/mL
MIC ([2]; NCTC11954, E. coli (NCTC11954)): 2 µg/mL (≈ 3.8 µM)
MIC ([2]; NCTC13351, E. coli (NCTC13351)): > 64 µg/mL
MIC ([2]; NCTC13352, E. coli (NCTC13352)): 4 µg/mL (≈ 7.61 µM)
MIC ([2]; NCTC13353, E. coli (NCTC13353)): 1 µg/mL (≈ 1.9 µM)
MIC ([2]; NCTC13400, E. coli (NCTC13400)): > 4 µg/mL
MIC ([2]; NCTC13441, E. coli (NCTC13441)): > 64 µg/mL
MIC ([2]; NCTC13450, E. coli (NCTC13450)): > 64 µg/mL
MIC ([2]; NCTC13461, E. coli (NCTC13461)): > 64 µg/mL
MIC ([2]; NCTC13462, E. coli (NCTC13462)): > 4 µg/mL
MIC ([2]; NCTC13463, E. coli (NCTC13463)): 2 µg/mL (≈ 3.8 µM)
MIC ([2]; NCTC13476, E. coli (NCTC13476)): 8 µg/mL (≈ 15.2 µM)
MIC (E. cloaceae (ATCC 13047)): > 64 µg/mL
MIC of Compound (μg/ml) in the presence of PMBN (128 μg/ml) ([3]; E. cloaceae (MMX 6087)): 0.25 µg/mL
MIC ([3]; E. cloaceae (MMX 6087)): > 64 µg/mL
MIC of Compound (μg/ml) in the presence of PMBN (128 μg/ml) ([3]; E. cloaceae (MMX 6093)): 0.12 µg/mL
MIC ([3]; E. cloaceae (MMX 6093)): 8 µg/mL (≈ 15.2 µM)
MIC of Compound (μg/ml) in the presence of PMBN (128 μg/ml) ([3]; E. cloaceae (MMX 6095)): 1 µg/mL
MIC ([3]; E. cloaceae (MMX 6095)): > 64 µg/mL
MIC of Compound (μg/ml) in the presence of PMBN (128 μg/ml) ([3]; E. cloaceae (MMX 6304)): 0.25 µg/mL
MIC ([3]; E. cloaceae (MMX 6304)): > 16 µg/mL
MIC [4]: 4 µg/mL (≈ 7.61 µM)
MIC (E. faecalis (ATCC 29212)): ≤ 0.008 µg/mL
MIC [5]: 0.015 µg/mL (≈ 0.0285 µM)
MIC of Compound (μg/ml) in the presence of PMBN (128 μg/ml) [6]: 0.03 µg/mL
MIC of Compound (μg/ml) in the presence of PMBN (128 μg/ml) (E. coli (ATCC 25922); Table 1, (b) No effect): 0.008 µg/mL
MIC of Compound (μg/ml) in the presence of Colistin (1 μg/ml) (E. coli (ATCC 25922); Table 2, colistin sub-inhibitory): 0.25 µg/mL
SMILES: CCNC(=O)Nc1nc2cc(-c3cnc(NS(=O)(=O)C(C)(C)C)nc3)cc(-c3ccc(C)cn3)c2s1 [Compound A-13, 1-[5-[2-(tert-Butylsulfonylamino)pyrimidin-5-yl]-7-(5-methyl-2-pyridyl)-1,3-benzothiazol-2-yl]-3-ethyl-urea]
